Test: Inhibition of HIV1 YU2 gp120 binding to CD4 expressing Cf2Th-CD4/CCR5 cells assessed as inhibition of viral infection after 48 hrs

Question: For `CC1(C)CC(NC(=O)C(=O)Nc2ccc(-n3cc(CCc4ccccc4)nn3)cc2)CC(C)(C)N1` [N1-(4-(4-phenethyl-1H-1,2,3-triazol-1-yl)phenyl)-N2-(2,2,6,6-tetramethylpiperidin-4-yl)oxalamide], which IC50 is on record?
Answer: > 100 µM

Question: Which IC50 does the source give for `CC1(C)CC(NC(=O)C(=O)Nc2ccc(-n3cc(-c4ccccc4)nn3)cc2)CC(C)(C)N1` [N1-(4-(4-phenyl-1H-1,2,3-triazol-1-yl)phenyl)-N2-(2,2,6,6-tetramethylpiperidin-4-yl)oxalamide] here?
Answer: > 100 µM

Question: Which IC50 does the source give for `CC1(C)CC(NC(=O)C(=O)Nc2ccc(N=[N+]=[N-])cc2)CC(C)(C)N1` [N1-(4-azidophenyl)-N2-(2,2,6,6-tetramethylpiperidin-4-yl)oxalamide] here?
Answer: > 100 µM

Question: For `O=C(NCC1COc2ccccc2O1)C(=O)Nc1ccc(Br)cc1` (stereo not drawn) [N1-(4-bromophenyl)-N2-((2,3-dihydrobenzo[b][1,4]dioxin-2-yl)methyl)oxalamide], which IC50 is on record?
Answer: > 100 µM

Question: With `O=C(NCc1ccco1)C(=O)Nc1ccc(Br)cc1` [N1-(4-bromophenyl)-N2-(furan-2-ylmethyl)oxalamide] as the compound, how does the IC50 read?
Answer: > 100 µM

Question: With `O=C(NCC1OCCc2ccccc21)C(=O)Nc1ccc(Br)cc1` (stereo not drawn) [N1-(4-bromophenyl)-N2-(isochroman-1-ylmethyl)oxalamide] as the compound, how does the IC50 read?
Answer: > 100 µM

Question: Which IC50 does the source give for `O=C(Nc1ccc(Br)cc1)C(=O)Nc1cccc2ccccc12` [N1-(4-bromophenyl)-N2-(naphthalen-1-yl)oxalamide] here?
Answer: > 100 µM

Question: With `CC1(C)CC(NC(=O)CC(=O)Nc2ccc(Br)cc2)CC(C)(C)N1` [N1-(4-bromophenyl)-N3-(2,2,6,6-tetramethylpiperidin-4-yl)malonamide] as the compound, how does the IC50 read?
Answer: > 100 µM

Question: For `CC1(C)CC(NC(=O)CCC(=O)Nc2ccc(Br)cc2)CC(C)(C)N1` [N1-(4-bromophenyl)-N4-(2,2,6,6-tetramethylpiperidin-4-yl)succinamide], which IC50 is on record?
Answer: > 100 µM

Question: Which IC50 does the source give for `CC1(C)CC(NC(=O)C(=O)Nc2ccc(Cl)cc2C(F)(F)F)CC(C)(C)N1` [N1-(4-chloro-2-(trifluoromethyl)phenyl)-N2-(2,2,6,6-tetramethylpiperidin-4-yl)oxalamide] here?
Answer: > 100 µM

Question: With `CCOc1cc(Cl)ccc1NC(=O)C(=O)NC1CC(C)(C)NC(C)(C)C1` [N1-(4-chloro-2-ethoxyphenyl)-N2-(2,2,6,6-tetramethylpiperidin-4-yl)oxalamide] as the compound, how does the IC50 read?
Answer: > 100 µM

Question: For `CC1(C)CC(NC(=O)C(=O)Nc2ccc(Cl)cc2F)CC(C)(C)N1` [N1-(4-chloro-2-fluorophenyl)-N2-(2,2,6,6-tetramethylpiperidin-4-yl)oxalamide], which IC50 is on record?
Answer: > 100 µM

Question: For `CC(C)COc1cc(Cl)ccc1NC(=O)C(=O)NC1CC(C)(C)NC(C)(C)C1` [N1-(4-chloro-2-isobutoxyphenyl)-N2-(2,2,6,6-tetramethylpiperidin-4-yl)oxalamide], which IC50 is on record?
Answer: > 100 µM

Question: Which IC50 does the source give for `COc1cc(Cl)ccc1NC(=O)C(=O)NC1CC(C)(C)NC(C)(C)C1` [N1-(4-chloro-2-methoxyphenyl)-N2-(2,2,6,6-tetramethylpiperidin-4-yl)oxalamide] here?
Answer: > 100 µM

Question: Which IC50 does the source give for `Cc1cc(Cl)ccc1NC(=O)C(=O)NC1CC(C)(C)NC(C)(C)C1` [N1-(4-chloro-2-methylphenyl)-N2-(2,2,6,6-tetramethylpiperidin-4-yl)oxalamide] here?
Answer: > 100 µM

Question: Which IC50 does the source give for `CN1C(C)(C)CC(NC(=O)C(=O)Nc2ccc(Cl)c(F)c2)CC1(C)C` [N1-(4-chloro-3-fluorophenyl)-N2-(1,2,2,6,6-pentamethylpiperidin-4-yl)oxalamide] here?
Answer: 65.8 µM

Question: With `CC1(C)C2CCC1(C)C(NC(=O)C(=O)Nc1ccc(Cl)c(F)c1)C2` (stereo not drawn) [N1-(4-chloro-3-fluorophenyl)-N2-(1,7,7-trimethylbicyclo[2.2.1]heptan-2-yl)oxalamide] as the compound, how does the IC50 read?
Answer: > 100 µM

Question: For `CCn1ncnc1C(C)NC(=O)C(=O)Nc1ccc(Cl)c(F)c1` (stereo not drawn) [N1-(4-chloro-3-fluorophenyl)-N2-(1-(1-ethyl-1H-1,2,4-triazol-5-yl)ethyl)oxalamide], which IC50 is on record?
Answer: > 100 µM

Question: Which IC50 does the source give for `CC(NC(=O)C(=O)Nc1ccc(Cl)c(F)c1)C(c1ccccc1Cl)N1CCOCC1` (stereo not drawn) [N1-(4-chloro-3-fluorophenyl)-N2-(1-(2-chlorophenyl)-1-morpholinopropan-2-yl)oxalamide] here?
Answer: > 100 µM

Question: For `CC(NC(=O)C(=O)Nc1ccc(Cl)c(F)c1)c1ccc2c(c1)NC(=O)CO2` (stereo not drawn) [N1-(4-chloro-3-fluorophenyl)-N2-(1-(3-oxo-3,4-dihydro-2H-benzo[b][1,4]oxazin-6-yl)ethyl)oxalamide], which IC50 is on record?
Answer: > 100 µM

Question: With `CC(NC(=O)C(=O)Nc1ccc(Cl)c(F)c1)c1ccc(S(N)(=O)=O)cc1` (stereo not drawn) [N1-(4-chloro-3-fluorophenyl)-N2-(1-(4-sulfamoylphenyl)ethyl)oxalamide] as the compound, how does the IC50 read?
Answer: > 100 µM

Question: Which IC50 does the source give for `CC(C)N1CCC(NC(=O)C(=O)Nc2ccc(Cl)c(F)c2)CC1` [N1-(4-chloro-3-fluorophenyl)-N2-(1-isopropylpiperidin-4-yl)oxalamide] here?
Answer: > 100 µM

Question: Which IC50 does the source give for `CN1CCCC(NC(=O)C(=O)Nc2ccc(Cl)c(F)c2)C1` (stereo not drawn) [N1-(4-chloro-3-fluorophenyl)-N2-(1-methylpiperidin-3-yl)oxalamide] here?
Answer: > 100 µM

Question: Which IC50 does the source give for `CN1CCCC(ONC(=O)C(=O)Nc2ccc(Cl)c(F)c2)C1` (stereo not drawn) [N1-(4-chloro-3-fluorophenyl)-N2-(1-methylpiperidin-3-yloxy)oxalamide] here?
Answer: > 100 µM

Question: Which IC50 does the source give for `CN1CCC(NC(=O)C(=O)Nc2ccc(Cl)c(F)c2)CC1` [N1-(4-chloro-3-fluorophenyl)-N2-(1-methylpiperidin-4-yl)oxalamide] here?
Answer: > 100 µM

Question: With `CCCN1CCCC(NC(=O)C(=O)Nc2ccc(Cl)c(F)c2)C1` (stereo not drawn) [N1-(4-chloro-3-fluorophenyl)-N2-(1-propylpiperidin-3-yl)oxalamide] as the compound, how does the IC50 read?
Answer: 58 µM

Question: Which IC50 does the source give for `CCCN1CCC(NC(=O)C(=O)Nc2ccc(Cl)c(F)c2)CC1` [N1-(4-chloro-3-fluorophenyl)-N2-(1-propylpiperidin-4-yl)oxalamide] here?
Answer: > 100 µM

Question: With `O=C(Nc1ccc(Cl)c(F)c1)C(=O)Nc1cccc2[nH]ncc12` [N1-(4-chloro-3-fluorophenyl)-N2-(1H-indazol-4-yl)oxalamide] as the compound, how does the IC50 read?
Answer: > 100 µM

Question: With `CC1(C)CC(NC(=O)C(=O)Nc2ccc(Cl)c(F)c2)CC(C)(C)N1` [N1-(4-chloro-3-fluorophenyl)-N2-(2,2,6,6-tetramethylpiperidin-4-yl)oxalamide] as the compound, how does the IC50 read?
Answer: 74.8 µM

Question: For `CC1(C)CC(NC(=O)C(=O)Nc2ccc(Cl)c(F)c2)CC(C)(C)O1` [N1-(4-chloro-3-fluorophenyl)-N2-(2,2,6,6-tetramethyltetrahydro-2H-pyran-4-yl)oxalamide], which IC50 is on record?
Answer: > 100 µM

Question: Which IC50 does the source give for `CC(C)N1CCCCC1CCNC(=O)C(=O)Nc1ccc(Cl)c(F)c1` (stereo not drawn) [N1-(4-chloro-3-fluorophenyl)-N2-(2-(1-isopropylpiperidin-2-yl)ethyl)oxalamide] here?
Answer: 27 µM

Question: Which IC50 does the source give for `CC1CN(CCNC(=O)C(=O)Nc2ccc(Cl)c(F)c2)CC(C)O1` (stereo not drawn) [N1-(4-chloro-3-fluorophenyl)-N2-(2-(2,6-dimethylmorpholino)ethyl)oxalamide] here?
Answer: > 100 µM

Question: Which IC50 does the source give for `CN1CCN(C(CNC(=O)C(=O)Nc2ccc(Cl)c(F)c2)c2ccccc2Cl)CC1` (stereo not drawn) [N1-(4-chloro-3-fluorophenyl)-N2-(2-(2-chlorophenyl)-2-(4-methylpiperazin-1-yl)ethyl)oxalamide] here?
Answer: 73.6 µM

Question: With `CC1CCCCN1C(C)CNC(=O)C(=O)Nc1ccc(Cl)c(F)c1` (stereo not drawn) [N1-(4-chloro-3-fluorophenyl)-N2-(2-(2-methylpiperidin-1-yl)propyl)oxalamide] as the compound, how does the IC50 read?
Answer: > 100 µM

Question: For `O=C(NCC(c1ccc(Cl)cc1)N1CCCC1)C(=O)Nc1ccc(Cl)c(F)c1` (stereo not drawn) [N1-(4-chloro-3-fluorophenyl)-N2-(2-(4-chlorophenyl)-2-(pyrrolidin-1-yl)ethyl)oxalamide], which IC50 is on record?
Answer: 61.4 µM

Question: Which IC50 does the source give for `CN1CCN(C(CNC(=O)C(=O)Nc2ccc(Cl)c(F)c2)c2cccs2)CC1` (stereo not drawn) [N1-(4-chloro-3-fluorophenyl)-N2-(2-(4-methylpiperazin-1-yl)-2-(thiophen-2-yl)ethyl)oxalamide] here?
Answer: > 100 µM

Question: Which IC50 does the source give for `C[C@@H]1CCC[C@H](C)N1CCNC(=O)C(=O)Nc1ccc(Cl)c(F)c1` [N1-(4-chloro-3-fluorophenyl)-N2-(2-((2S,6R)-2,6-dimethylpiperidin-1-yl)ethyl)oxalamide] here?
Answer: 75.5 µM

Question: For `CCN(CC)C(CNC(=O)C(=O)Nc1ccc(Cl)c(F)c1)CC(C)C` (stereo not drawn) [N1-(4-chloro-3-fluorophenyl)-N2-(2-(diethylamino)-4-methylpentyl)oxalamide], which IC50 is on record?
Answer: > 100 µM

Question: With `CN(C)C(CNC(=O)C(=O)Nc1ccc(Cl)c(F)c1)c1ccco1` (stereo not drawn) [N1-(4-chloro-3-fluorophenyl)-N2-(2-(dimethylamino)-2-(furan-2-yl)ethyl)oxalamide] as the compound, how does the IC50 read?
Answer: > 100 µM

Question: With `CN(C)C(CNC(=O)C(=O)Nc1ccc(Cl)c(F)c1)N1CCCC1` (stereo not drawn) [N1-(4-chloro-3-fluorophenyl)-N2-(2-(dimethylamino)-2-(pyrrolidin-1-yl)ethyl)oxalamide] as the compound, how does the IC50 read?
Answer: > 100 µM

Question: Which IC50 does the source give for `O=C(NCC(c1ccco1)N1CCCC1)C(=O)Nc1ccc(Cl)c(F)c1` (stereo not drawn) [N1-(4-chloro-3-fluorophenyl)-N2-(2-(furan-2-yl)-2-(pyrrolidin-1-yl)ethyl)oxalamide] here?
Answer: > 100 µM

Question: With `O=C(NCc1ccccc1CN1CCOCC1)C(=O)Nc1ccc(Cl)c(F)c1` [N1-(4-chloro-3-fluorophenyl)-N2-(2-(morpholinomethyl)benzyl)oxalamide] as the compound, how does the IC50 read?
Answer: 20.5 µM

Question: With `CC(C)(CNC(=O)C(=O)Nc1ccc(Cl)c(F)c1)N1CCOCC1` [N1-(4-chloro-3-fluorophenyl)-N2-(2-methyl-2-morpholinopropyl)oxalamide] as the compound, how does the IC50 read?
Answer: > 100 µM

Question: For `CCc1n[nH]c(NC(=O)C(=O)Nc2ccc(Cl)c(F)c2)c1CC` [N1-(4-chloro-3-fluorophenyl)-N2-(3,4-diethyl-1H-pyrazol-5-yl)oxalamide], which IC50 is on record?
Answer: > 100 µM

Question: For `CC1(C)Cc2c(sc(NC(=O)C(=O)Nc3ccc(Cl)c(F)c3)c2C#N)C(C)(C)N1` [N1-(4-chloro-3-fluorophenyl)-N2-(3-cyano-5,5,7,7-tetramethyl-4,5,6,7-tetrahydrothieno[2,3-c]pyridin-2-yl)oxalamide], which IC50 is on record?
Answer: > 100 µM

Question: For `Cn1ccnc1C(O)(CCNC(=O)C(=O)Nc1ccc(Cl)c(F)c1)C(F)(F)F` (stereo not drawn) [N1-(4-chloro-3-fluorophenyl)-N2-(4,4,4-trifluoro-3-hydroxy-3-(1-methyl-1H-imidazol-2-yl)butyl)oxalamide], which IC50 is on record?
Answer: > 100 µM

Question: With `O=C(Nc1ccc(Cl)c(F)c1)C(=O)NC1CCc2[nH]ncc2C1` (stereo not drawn) [N1-(4-chloro-3-fluorophenyl)-N2-(4,5,6,7-tetrahydro-1H-indazol-5-yl)oxalamide] as the compound, how does the IC50 read?
Answer: > 100 µM

Question: For `O=C(Nc1ccc(Cl)c(F)c1)C(=O)Nc1cnn2c1NCCC2` [N1-(4-chloro-3-fluorophenyl)-N2-(4,5,6,7-tetrahydropyrazolo[1,5-a]pyrimidin-3-yl)oxalamide], which IC50 is on record?
Answer: > 100 µM

Source: BindingDB's records for doi:10.1016/j.bmc.2010.11.049 (Bryn Mawr College, 2011)
